Experimental data reported in PubChem BioAssay (NCI).
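Five compound concentrations were applied to cells in 96-well plates for 48 hours; endpoints were derived by simple linear interpolation of the resulting dose-response curve. At the TGI there is no net growth.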

Columns and labels:
Test in all cases: NCI tumour cell line growth inhibition, 48 h
EKVX NSCLC = system: EKVX NSCLC
HCC-2998 colon = system: HCC-2998 colon
HL-60(TB) leukemia = system: HL-60(TB) leukemia
HS 578T breast = system: HS 578T breast
K-562 leukemia = system: K-562 leukemia
NCI-H522 lung = system: NCI-H522 lung
RPMI-8226 leukemia = system: RPMI-8226 leukemia
SF-268 CNS = system: SF-268 CNS
UACC-62 melanoma = system: UACC-62 melanoma

Work on `Cc1cc2nc3ccccc3n2c2ccccc12` yielded a TGI (EKVX NSCLC) greater than 10 µM, a TGI (HCC-2998 colon) greater than 10 µM and a TGI (HL-60(TB) leukemia) greater than 10 µM. It also gave a TGI (HS 578T breast) greater than 10 µM, a TGI (K-562 leukemia) greater than 10 µM and a TGI (NCI-H522 lung) greater than 10 µM. For the same compound, the TGI (RPMI-8226 leukemia) was greater than 10 µM, the TGI (SF-268 CNS) was greater than 10 µM and the TGI (UACC-62 melanoma) was greater than 10 µM.
`Oc1cccc2c(Br)ccnc12` was tested, and the TGI (EKVX NSCLC) was 11.6 µM, the TGI (HCC-2998 colon) was 31.7 µM and the TGI (HL-60(TB) leukemia) was 0.983 µM. The TGI (HS 578T breast) was 50.5 µM, the TGI (K-562 leukemia) was greater than 22.5 µM and the TGI (NCI-H522 lung) was 17.1 µM. For the same compound, the TGI (RPMI-8226 leukemia) was 4.72 µM, the TGI (SF-268 CNS) was 14.2 µM and the TGI (UACC-62 melanoma) was 11.1 µM.
Work on `CC(OP(=O)(O)O)C(N)C(=O)O` (stereo unspecified) yielded a TGI (EKVX NSCLC) greater than 100 µM, a TGI (HCC-2998 colon) greater than 100 µM and a TGI (HL-60(TB) leukemia) greater than 100 µM. The TGI (HS 578T breast) was greater than 100 µM, the TGI (K-562 leukemia) was greater than 100 µM and the TGI (NCI-H522 lung) was greater than 100 µM. The TGI (RPMI-8226 leukemia) was greater than 100 µM, the TGI (SF-268 CNS) was greater than 100 µM and the TGI (UACC-62 melanoma) was greater than 100 µM.
Work on `O=C(O)CSC1=NNC2(C(=O)N1)c1ccccc1-c1ccccc12` yielded a TGI (EKVX NSCLC) greater than 10 µM, a TGI (HCC-2998 colon) greater than 10 µM and a TGI (HL-60(TB) leukemia) greater than 10 µM. The TGI (HS 578T breast) was greater than 10 µM, the TGI (K-562 leukemia) was greater than 10 µM and the TGI (NCI-H522 lung) was greater than 10 µM. It also gave a TGI (RPMI-8226 leukemia) greater than 10 µM, a TGI (SF-268 CNS) greater than 10 µM and a TGI (UACC-62 melanoma) greater than 10 µM.
With `C=C(CN(CC)CC)C1(c2ccccc2)CC2(CCCC2)C(=O)O1` (stereo unspecified) the TGI (EKVX NSCLC) was greater than 100 µM, the TGI (HCC-2998 colon) was greater than 100 µM and the TGI (HL-60(TB) leukemia) was greater than 100 µM. It also gave a TGI (HS 578T breast) greater than 100 µM, a TGI (K-562 leukemia) greater than 100 µM and a TGI (NCI-H522 lung) greater than 100 µM. It also gave a TGI (RPMI-8226 leukemia) greater than 100 µM, a TGI (SF-268 CNS) greater than 100 µM and a TGI (UACC-62 melanoma) greater than 100 µM.
`O=C1C=CC2(O[C@H](C3CCCCC3)[C@@H](C3CCCCC3)O2)C(SC(=O)c2ccccc2)C1` (stereo partly specified) showed a TGI (EKVX NSCLC) of 12.7 µM, a TGI (HCC-2998 colon) of 5.52 µM and a TGI (HL-60(TB) leukemia) of 7.37 µM. It also gave a TGI (HS 578T breast) of 10.9 µM, a TGI (K-562 leukemia) of 4.73 µM and a TGI (NCI-H522 lung) of 2.23 µM. It also gave a TGI (RPMI-8226 leukemia) of 2.22 µM, a TGI (SF-268 CNS) of 5.89 µM and a TGI (UACC-62 melanoma) of 8.57 µM.
Compound `O=c1cc(N2CCOCC2)n2c(ccc3ccccc32)n1` has a TGI (EKVX NSCLC) greater than 100 µM, a TGI (HCC-2998 colon) greater than 100 µM and a TGI (HL-60(TB) leukemia) greater than 100 µM. The TGI (HS 578T breast) was greater than 100 µM, the TGI (K-562 leukemia) was greater than 100 µM and the TGI (NCI-H522 lung) was greater than 100 µM. It also gave a TGI (RPMI-8226 leukemia) greater than 100 µM, a TGI (SF-268 CNS) greater than 100 µM and a TGI (UACC-62 melanoma) greater than 100 µM.
Work on `N/N=C(/N)SCCCCCCCCCCS/C(N)=N/N` yielded a TGI (EKVX NSCLC) greater than 100 µM, a TGI (HCC-2998 colon) of 59.6 µM and a TGI (HL-60(TB) leukemia) of 39.4 µM. For the same compound, the TGI (HS 578T breast) was greater than 100 µM, the TGI (K-562 leukemia) was 32.3 µM and the TGI (NCI-H522 lung) was 65.6 µM. For the same compound, the TGI (RPMI-8226 leukemia) was 70.8 µM, the TGI (SF-268 CNS) was greater than 100 µM and the TGI (UACC-62 melanoma) was 47.1 µM.
Compound `CC(C)(C)c1cc(OCc2nnc3sc(Cc4ccccc4)nn23)c(Cl)cc1OCc1nnc2sc(Cc3ccccc3)nn12` has a TGI (EKVX NSCLC) greater than 100 µM, a TGI (HCC-2998 colon) of 20.9 µM and a TGI (HL-60(TB) leukemia) of 58.3 µM. The TGI (HS 578T breast) was greater than 100 µM, the TGI (K-562 leukemia) was greater than 100 µM and the TGI (NCI-H522 lung) was greater than 100 µM. It also gave a TGI (RPMI-8226 leukemia) greater than 100 µM, a TGI (SF-268 CNS) greater than 100 µM and a TGI (UACC-62 melanoma) of 49.8 µM.
Work on `Cc1cc(C)nc(NS(=O)(=O)c2ccc(NNc3c4ccccc4nc4c(C(=O)Nc5ccc(S(=O)(=O)Nc6cc(C)on6)cc5)cccc34)cc2)n1` yielded a TGI (EKVX NSCLC) of 65.7 µM, a TGI (HCC-2998 colon) of 50.2 µM and a TGI (HL-60(TB) leukemia) of 80.6 µM. For the same compound, the TGI (HS 578T breast) was greater than 100 µM, the TGI (K-562 leukemia) was 87.2 µM and the TGI (NCI-H522 lung) was 82.1 µM. For the same compound, the TGI (RPMI-8226 leukemia) was greater than 100 µM, the TGI (SF-268 CNS) was 81.3 µM and the TGI (UACC-62 melanoma) was greater than 100 µM.
In the case of `NC1CCCCC1NCCNC1CCCCC1N` (stereo unspecified), the TGI (EKVX NSCLC) is reported as greater than 100 µM, the TGI (HCC-2998 colon) is reported as 81.7 µM and the TGI (HL-60(TB) leukemia) is reported as greater than 100 µM. It also gave a TGI (HS 578T breast) greater than 100 µM, a TGI (K-562 leukemia) greater than 100 µM and a TGI (NCI-H522 lung) greater than 100 µM. It also gave a TGI (RPMI-8226 leukemia) greater than 100 µM, a TGI (SF-268 CNS) greater than 100 µM and a TGI (UACC-62 melanoma) greater than 100 µM.
With `CSc1nnc(SCc2nn3c(=O)cc(C)nc3s2)s1` the TGI (EKVX NSCLC) was greater than 100 µM, the TGI (HCC-2998 colon) was greater than 100 µM and the TGI (HL-60(TB) leukemia) was greater than 100 µM. For the same compound, the TGI (HS 578T breast) was greater than 100 µM, the TGI (K-562 leukemia) was greater than 100 µM and the TGI (NCI-H522 lung) was greater than 100 µM. The TGI (RPMI-8226 leukemia) was greater than 100 µM, the TGI (SF-268 CNS) was greater than 100 µM and the TGI (UACC-62 melanoma) was greater than 100 µM.
Work on `O=c1[nH]n(CCc2ccccc2CCl)c2ccc([N+](=O)[O-])cc12` yielded a TGI (EKVX NSCLC) of 36.1 µM, a TGI (HCC-2998 colon) greater than 100 µM and a TGI (HL-60(TB) leukemia) greater than 100 µM. For the same compound, the TGI (HS 578T breast) was greater than 100 µM, the TGI (K-562 leukemia) was greater than 100 µM and the TGI (NCI-H522 lung) was greater than 100 µM. The TGI (RPMI-8226 leukemia) was greater than 100 µM, the TGI (SF-268 CNS) was greater than 100 µM and the TGI (UACC-62 melanoma) was greater than 100 µM.
In the case of `CC(=O)/C=C/c1ccccc1`, the TGI (EKVX NSCLC) is reported as greater than 100 µM, the TGI (HCC-2998 colon) is reported as greater than 100 µM and the TGI (HL-60(TB) leukemia) is reported as greater than 100 µM. For the same compound, the TGI (HS 578T breast) was greater than 100 µM, the TGI (K-562 leukemia) was greater than 100 µM and the TGI (NCI-H522 lung) was 32.6 µM. The TGI (RPMI-8226 leukemia) was greater than 100 µM, the TGI (SF-268 CNS) was greater than 100 µM and the TGI (UACC-62 melanoma) was greater than 100 µM.
Work on `O=C1Nc2cccc(Cl)c2/C1=C\c1c(-c2ccccc2)nc2n1CCS2` yielded a TGI (EKVX NSCLC) of 74.7 µM, a TGI (HCC-2998 colon) of 46.7 µM and a TGI (HL-60(TB) leukemia) of 41.3 µM. It also gave a TGI (HS 578T breast) of 61.4 µM, a TGI (K-562 leukemia) of 55.1 µM and a TGI (NCI-H522 lung) greater than 100 µM. The TGI (RPMI-8226 leukemia) was 52.9 µM, the TGI (SF-268 CNS) was 66.9 µM and the TGI (UACC-62 melanoma) was 45.6 µM.
With `c1cc2cc3c4c5c(cc6ccc7cc8cc9c%10c8c8c7c6c5c8c5c%10c(c1C9N1CCOCCOCCOCCOCCOCC1)c2c45)C3` (stereo unspecified) the TGI (EKVX NSCLC) was greater than 100 µM, the TGI (HCC-2998 colon) was greater than 100 µM and the TGI (HL-60(TB) leukemia) was greater than 100 µM. The TGI (HS 578T breast) was greater than 100 µM, the TGI (K-562 leukemia) was greater than 100 µM and the TGI (NCI-H522 lung) was greater than 100 µM. For the same compound, the TGI (RPMI-8226 leukemia) was greater than 100 µM, the TGI (SF-268 CNS) was greater than 100 µM and the TGI (UACC-62 melanoma) was greater than 100 µM.
`COc1ccc(-n2c(N)c(C#N)c(C#N)c2-c2ccco2)cc1` showed a TGI (EKVX NSCLC) greater than 100 µM, a TGI (HCC-2998 colon) greater than 100 µM and a TGI (HL-60(TB) leukemia) greater than 100 µM. The TGI (HS 578T breast) was greater than 100 µM, the TGI (K-562 leukemia) was greater than 100 µM and the TGI (NCI-H522 lung) was greater than 100 µM. For the same compound, the TGI (RPMI-8226 leukemia) was greater than 100 µM, the TGI (SF-268 CNS) was greater than 100 µM and the TGI (UACC-62 melanoma) was greater than 100 µM.
With `Cc1nc(C)c(N2CCN(CN)CC2)c(=O)[nH]1` the TGI (EKVX NSCLC) was greater than 100 µM, the TGI (HCC-2998 colon) was greater than 100 µM and the TGI (HL-60(TB) leukemia) was greater than 100 µM. For the same compound, the TGI (HS 578T breast) was greater than 100 µM, the TGI (K-562 leukemia) was greater than 100 µM and the TGI (NCI-H522 lung) was greater than 100 µM. It also gave a TGI (RPMI-8226 leukemia) greater than 100 µM, a TGI (SF-268 CNS) greater than 100 µM and a TGI (UACC-62 melanoma) greater than 100 µM.
In the case of `COc1cccc(NC(=O)CC(=O)n2nc(-c3ccccc3)c(N=Nc3ccc(Cl)cc3)c2-c2ccccc2)c1`, the TGI (EKVX NSCLC) is reported as 92.8 µM, the TGI (HCC-2998 colon) is reported as 64.5 µM and the TGI (HL-60(TB) leukemia) is reported as 56.1 µM. It also gave a TGI (HS 578T breast) greater than 82.3 µM, a TGI (K-562 leukemia) greater than 78 µM and a TGI (NCI-H522 lung) of 59.8 µM. It also gave a TGI (RPMI-8226 leukemia) greater than 100 µM, a TGI (SF-268 CNS) of 49.4 µM and a TGI (UACC-62 melanoma) greater than 72.7 µM.
